What was measured:
[1] = Binding affinity to Zymomonas mobilis tRNA guanine transglycosylase assessed as inhibition of [8-3H]guanine incorporation into Escherichia coli tRNA Tyr at position G34 preincubated for 10 mins followed by tRNA Tyr/[8-3H]guanine addition measured after 30 mins by liquid scintillation counting
[2] = Binding affinity to Zymomonas mobilis tRNA guanine transglycosylase by isothermal titration calorimetry

Row | Kd [2] [nM] | SMILES | Ki [1] [nM]
1 |  | Nc1nc2cc3nc(NCCc4ccc(CCO)cc4)[nH]c3cc2c(=O)[nH]1 | 7
2 |  | COC(=O)c1ccc(CCNc2nc3cc4nc(N)[nH]c(=O)c4cc3[nH]2)cc1 | 2
3 | 29.8 | Nc1nc2cc3nc(NCCc4ccc(C(=O)O)cc4)[nH]c3cc2c(=O)[nH]1 | 30
4 | 56.6 | Nc1nc2cc3nc(NCCc4ccccc4)[nH]c3cc2c(=O)[nH]1 | 10
5 |  | N#Cc1ccc(CCNc2nc3cc4nc(N)[nH]c(=O)c4cc3[nH]2)cc1 | 21

From ChEMBL document CHEMBL4431334, “Occupying a flat subpocket in a tRNA-modifying enzyme with ordered or disordered side chains: Favorable or unfavorable for binding?” (Bioorg Med Chem, 2016)
